Assay [1] has as its system MRSA ATCC 33591. Briefly: microbe, parasite or virus in culture. The following applies: for times lower antibacterial activity than Arg10-teixobactin: from MIC against MRSA ATCC 33591. How it is done: were grown in Mueller Hinton broth (Oxoid) in triplicate. All incubations were at 37°C. Dilutions were carried out in triplicate. 100 µl of autoclaved Mueller Hinton broth was added to wells 2-12 in a 96-well plate. 200 µl of the peptide was added to well one at a concentration of 256 µg/mL. 100µl of peptide in well one was taken up and pipetted into well two. The mixture was then mixed via pipetting before 100µl was taken up and pipetted into well three. This process was repeated up to well 11. Once […]
peptide present. Thus, the concentrations (in µg/mL) were: 256, 128, 64, 32, 16, 8, 4, 2, 1, 0.5, 0.25 and no peptide present. Each well was then inoculated with 100µl of bacteria that had been diluted to an […]
This was repeated three times. The 96-well plates were then incubated at 37°C for 24 hours. The MIC was determined to be the lowest concentration at which there was no growth visible. […]
was repeated at an altered initial concentration of 64 µg/ml. Therefore, the new concentrations for MIC […]
(§1) VIII. MIC testing (extended panel)
(§2) Bacterial cultures were grown overnight i n Mueller-Hinton Agar (MHA) plates and adjusted to a final concentration of 10 5 – 106 CFU/ml. 100 µl of inoculum in Meuller -Hinton broth (MHB) was mixed with equal volume of peptides (dissolved in MHB) at 2x their concentration in a 96 well plate. In parallel experiments, MIC values were determined in the media containing polysorbate 80 (0 .002%, v/v) to […]

The test system of assay [2] is VRE 1: VRE ATCC 700802. Briefly: organism not typed. The following applies: VRE 1; MHB containing polysorbate 80 (0.002%, v/v); 37 °C, 24 h. On the procedure: as §1, §2
(§3) prevent non-specific adsorption of the peptides to plastic surfaces. The final peptides concentrations […]
(§4) Positive and negative controls contained 200 µl of inoculum without any peptide dissolved in broth, respectively. The 96 well plates were then incubated at 37 °C for 24 h. […]
(§5) 80. Strain information: MRSA 1: MRSA ATCC 700699, MRSA 2: MRSA DR 42412 (sputum), MRSA
(§6) 3: MRSA DM21455 (eye). […] Staphylococcus aureus ATCC

For assay [3], the system named is VRE 2: VRE ATCC 29212. Briefly: organism not typed. The following applies: VRE 2; MHB containing polysorbate 80 (0.002%, v/v); 37 °C, 24 h. How it is done:
as §1, §2, §3, §4, §5, §6

The subject of assay [4] is Staphylococcus aureus ATCC 29213. As to the kind of experiment: microbe, parasite or virus in culture. The following applies: S. aureus ATCC 29213; MHB containing polysorbate 80 (0.002%, v/v); 37 °C, 24 h. How it is done: as §1, §2, §3
(§7) Positive and negative controls contained 200 µl of inoculum without any peptide dissolved in broth, respectively. The 96 well plates were then incubated at 37 °C for 24 h.
(§8) All the experiments were performed in two independent duplicates and the MIC was determined as the […]
(§9) Minimum bactericidal concentration
(§10) The lowest concentration in which no visible colonies could be detected was taken as the MBC.
as §5, §6

Assay [5] deals with MRSA 3: MRSA DM21455 (eye). As to the kind of experiment: microbe, parasite or virus in culture. The following applies: MRSA 3; MHB containing polysorbate 80 (0.002%, v/v); 37 °C, 24 h. How it is done: as §1, §2, §3, §7, §8, §9, §10, §5, §6
Assay [6] concerns MRSA 1: MRSA ATCC 700699. Briefly: microbe, parasite or virus in culture. The following applies: MRSA 1; MHB containing polysorbate 80 (0.002%, v/v); 37 °C, 24 h; two independent duplicates. On the procedure:
as §1, §2, §3, §7, §8, §9, §10, §5, §6

Assay [7] has as its system MRSA 2: MRSA DR 42412 (sputum). As to the kind of experiment: microbe, parasite or virus in culture. The following applies: MRSA 2; MHB containing polysorbate 80 (0.002%, v/v); 37 °C, 24 h. On the procedure: as §1, §2, §3, §4, §5, §6

Converted amounts (≈) assume the structure as drawn. Bridge positions count the residues as written; N and C are the ends. Square brackets hold non-standard residues; d marks the D form. Peptide text beside a SMILES is read from it. d(aIle) = CC[C@H](C)[C@@H](N)C(=O)O; dNMeF = CN[C@H](Cc1ccccc1)C(=O)O

Regarding `CC[C@H](C)[C@H](NC(=O)[C@@H](Cc1ccccc1)NC)C(=O)N[C@@H](CO)C(=O)N[C@H](CCC(N)=O)C(=O)N[C@@H](C(=O)N[C@H](C(=O)N[C@@H](C)C(=O)N[C@H]1C(=O)N[C@@H](C)C(=O)N[C@@H](CCCNC(=N)N)C(=O)N[C@@H]([C@@H](C)CC)C(=O)O[C@H]1C)[C@@H](C)CC)[C@@H](C)CC` [Compound 7, Ala7-Arg10-teixobactin] (H-[dNMeF]IS[dQ][d(aIle)]IA[dT]ARI; ester 8-C), the MIC in assay [1] (ATCC 33591, 24 h) was 16–32 μg mL^–1.

In assay [1] (ATCC 33591, 24 h), `CC[C@H](C)[C@H](NC(=O)[C@@H](Cc1ccccc1)NC)C(=O)N[C@@H](CO)C(=O)N[C@H](CCC(N)=O)C(=O)N[C@@H](C(=O)N[C@H](C(=O)N[C@@H](CO)C(=O)N[C@H]1C(=O)N[C@@H](C)C(=O)N[C@@H](Cc2ccccc2)C(=O)N[C@@H]([C@@H](C)CC)C(=O)O[C@H]1C)[C@@H](C)CC)[C@@H](C)CC` [Compound 15, Phe10-teixobactin] (H-[dNMeF]IS[dQ][d(aIle)]IS[dT]AFI; ester 8-C) yielded an MIC of 2 μg mL^–1.

On to `CC[C@H](C)[C@H](NC(=O)[C@@H](Cc1ccccc1)NC)C(=O)N[C@@H](CO)C(=O)N[C@H](CCC(N)=O)C(=O)N[C@@H](C(=O)N[C@@H](C)C(=O)N[C@@H](CO)C(=O)N[C@H]1C(=O)N[C@@H](C)C(=O)N[C@@H](CCCNC(=N)N)C(=O)N[C@@H]([C@@H](C)CC)C(=O)O[C@H]1C)[C@@H](C)CC` [Compound 6, Ala6-Arg10-teixobactin] (H-[dNMeF]IS[dQ][d(aIle)]AS[dT]ARI; ester 8-C), for which the MIC in assay [1] (ATCC 33591, 24 h) is listed as greater than 128 μg mL^–1.

In the case of `CC[C@H](C)[C@H](NC(=O)[C@@H](Cc1ccccc1)NC)C(=O)N[C@@H](CO)C(=O)N[C@H](CCC(N)=O)C(=O)N[C@@H](C(=O)N[C@H](C(=O)N[C@@H](CO)C(=O)N[C@H]1C(=O)N[C@@H](C)C(=O)N[C@H](C)C(=O)N[C@@H]([C@@H](C)CC)C(=O)O[C@H]1C)[C@@H](C)CC)[C@@H](C)CC` [Compound 9, D-Ala10-teixobactin] (H-[dNMeF]IS[dQ][d(aIle)]IS[dT]A[dA]I; ester 8-C), the MIC in assay [1] (ATCC 33591, 24 h) turned out to be 32 μg mL^–1. Moreover, in assay [1], the “times lower antibacterial activity than Arg10-teixobactin” value worked out at 16 times.

In assay [1] (ATCC 33591, 24 h), `CC[C@H](C)[C@H](NC(=O)[C@@H](C)NC(C)=O)C(=O)N[C@@H](CO)C(=O)N[C@H](CCC(N)=O)C(=O)N[C@@H](C(=O)N[C@H](C(=O)N[C@@H](CO)C(=O)N[C@H]1C(=O)N[C@@H](C)C(=O)N[C@@H](CCCNC(=N)N)C(=O)N[C@@H]([C@@H](C)CC)C(=O)O[C@H]1C)[C@@H](C)CC)[C@@H](C)CC` [Compound 1, Ac-D-Ala1-Arg10-teixobactin] came in with an MIC greater than 128 μg mL^–1.

As for `CCCCCCCCCC(=O)N[C@@H](Cc1c[nH]c2ccccc12)C(=O)N[C@H](CC(N)=O)C(=O)N[C@@H](CC(=O)O)C(=O)N[C@@H]1C(=O)NCC(=O)N[C@@H](CCCN)C(=O)N[C@@H](CC(=O)O)C(=O)N[C@H](C)C(=O)N[C@@H](CC(=O)O)C(=O)NCC(=O)N[C@H](CO)C(=O)N[C@@H]([C@H](C)CC(=O)O)C(=O)N[C@@H](CC(=O)c2ccccc2N)C(=O)O[C@@H]1C` [Daptomycin, reference compound], the “MIC (with polysorbate 80)” value is recorded as 0.5 µg/mL (≈ 0.309 µM) in assay [2]; 0.5 µg/mL (≈ 0.309 µM) in assay [3]; 0.25 µg/mL (≈ 0.154 µM) in assay [4]; 0.5 µg/mL (≈ 0.309 µM) in assay [5]; 0.5 µg/mL (≈ 0.309 µM) in assay [6]; 0.5 µg/mL (≈ 0.309 µM) in assay [7].

As for `CC[C@H](C)[C@H](NC(=O)[C@@H](Cc1ccccc1)NC)C(=O)N[C@@H](CO)C(=O)N[C@H](CCC(N)=O)C(=O)N[C@@H](C(=O)N[C@H](C(=O)N[C@@H](CO)C(=O)N[C@H]1C(=O)N[C@@H](C)C(=O)NCC(=O)N[C@@H]([C@@H](C)CC)C(=O)O[C@H]1C)[C@@H](C)CC)[C@@H](C)CC` [Compound 10, Gly10-teixobactin] (H-[dNMeF]IS[dQ][d(aIle)]IS[dT]AGI; ester 8-C), the MIC in assay [1] (ATCC 33591, 24 h) is given as 2 μg mL^–1.

In the case of `CC[C@H](C)[C@H](NC(=O)[C@H](NC(=O)[C@@H](CCC(N)=O)NC(=O)[C@H](CO)NC(=O)[C@H](C)NC(=O)[C@@H](Cc1ccccc1)NC)[C@@H](C)CC)C(=O)N[C@@H](CO)C(=O)N[C@H]1C(=O)N[C@@H](C)C(=O)N[C@@H](CCCNC(=N)N)C(=O)N[C@@H]([C@@H](C)CC)C(=O)O[C@H]1C` [Compound 2, Ala2-Arg10-teixobactin] (H-[dNMeF]AS[dQ][d(aIle)]IS[dT]ARI; ester 8-C), in assay [1] (ATCC 33591, 24 h), the MIC was greater than 128 μg mL^–1.

Take `CC[C@H](C)[C@H](NC(=O)[C@@H](Cc1ccccc1)NC)C(=O)N[C@@H](CO)C(=O)N[C@H](CCC(N)=O)C(=O)N[C@@H](C(=O)N[C@H](C(=O)N[C@@H](CO)C(=O)N[C@H]1C(=O)N[C@@H](C)C(=O)N[C@@H](CO)C(=O)N[C@@H]([C@@H](C)CC)C(=O)O[C@H]1C)[C@@H](C)CC)[C@@H](C)CC` [Compound 14, Ser10-teixobactin] (H-[dNMeF]IS[dQ][d(aIle)]IS[dT]ASI; ester 8-C): the MIC in assay [1] (MRSA ATCC 33591, Mueller Hinton broth (Oxoid), peptides in DMSO containing 0.002% polysorbate 80, 37°C, 24 h, triplicate) came to 16 μg mL^–1. The “times lower antibacterial activity than Arg10-teixobactin” value in assay [1] turned out to be 8 times.

`CC[C@H](C)[C@H](NC(=O)[C@@H](Cc1ccccc1)NC)C(=O)N[C@@H](CO)C(=O)N[C@H](C)C(=O)N[C@@H](C(=O)N[C@H](C(=O)N[C@@H](CO)C(=O)N[C@H]1C(=O)N[C@@H](C)C(=O)N[C@@H](CCCNC(=N)N)C(=O)N[C@@H]([C@@H](C)CC)C(=O)O[C@H]1C)[C@@H](C)CC)[C@@H](C)CC` [Compound 4, D-Ala4-Arg10-teixobactin] (H-[dNMeF]IS[dA][d(aIle)]IS[dT]ARI; ester 8-C): in assay [1] (ATCC 33591, 24 h), the MIC is 2–4 μg mL^–1.

With `CC[C@H](C)[C@H](NC(=O)[C@@H](Cc1ccccc1)NC)C(=O)N[C@@H](C)C(=O)N[C@H](CCC(N)=O)C(=O)N[C@@H](C(=O)N[C@H](C(=O)N[C@@H](CO)C(=O)N[C@H]1C(=O)N[C@@H](C)C(=O)N[C@@H](CCCNC(=N)N)C(=O)N[C@@H]([C@@H](C)CC)C(=O)O[C@H]1C)[C@@H](C)CC)[C@@H](C)CC` [Compound 3, Ala3-Arg10-teixobactin] (H-[dNMeF]IA[dQ][d(aIle)]IS[dT]ARI; ester 8-C), the MIC in assay [1] (ATCC 33591, 24 h) was 1–2 μg mL^–1.

Consider `CC[C@H](C)[C@H](NC(=O)[C@@H](C)NC(=O)[C@@H](CCC(N)=O)NC(=O)[C@H](CO)NC(=O)[C@@H](NC(=O)[C@@H](Cc1ccccc1)NC)[C@@H](C)CC)C(=O)N[C@@H](CO)C(=O)N[C@H]1C(=O)N[C@@H](C)C(=O)N[C@@H](CCCNC(=N)N)C(=O)N[C@@H]([C@@H](C)CC)C(=O)O[C@H]1C` [Compound 5, D-Ala5-Arg10-teixobactin] (HELM PEPTIDE1{[CN[C@H](Cc1ccccc1)C(=O)[*:2]].I.S.[dQ].[dA].I.S.[C[C@H](O[*:3])[C@@H](N[*:1])C(=O)[*:2]].A.R.I}$PEPTIDE1,PEPTIDE1,8:R3-11:R2$$$V2.0), for which, in assay [1] (ATCC 33591, 24 h), the MIC is recorded as 64–128 μg mL^–1.
